The target of the assay is T1, human Cystic Fibrosis Transmembrane Conductance Regulator (CFTR) harboring the ΔF508 mutation (Homo sapiens, UniProt P13569, DEL508-508).
T1 construct: expressed in transfected cells; host or cells: H441 carcinoma line (G418 selection)
The assay can be described thus: H441 cell Emax and EC50: HRP-tagged ΔF508-CFTR cell surface luminescence assay. In kind it is cell-based. Conditions: H441 cells expressing ΔF508-CFTR-HRP, 27° C., two nights; for EC50: 15-point dose-response, top 24.5 μM; for Emax: NCI-H441, % of maximum VX809 signal. An excerpt:
Two cell lines were used, the H441 carcinoma line and the CFHBE41o-(41o-) human bronchial epithelial line. Both cell lines expressed human Cystic Fibrosis Transmembrane Conductance Regulator (CFTR) harboring the ΔF508 mutation and with an in-frame fusion in CFTR extracellular loop 4 of Horse Radish Peroxidase (HRP) under control of the CMV promoter. In the presence of the HRP tag, ΔF508-CFTR transported to the cell surface was detectable upon addition of an HRP substrate (Luminata Forte). Both cell types were cultivated at 37° C. with CO2.
For both cell types, the medium was changed every other day unless the culture was at low % confluence. Cells were used for the assays at ˜75% confluence.
To a polypropylene (PP) 384-well plate, 15 μls DMSO was added to all wells in columns 1-22 and 24 (low Control). 15 μls of 260 μM VX809 (Lumacaftor), Selleckchem S1565, was added to column 23 wells (high Control). 15 μls of 10 mM test compound or VX809 (control) were added to wells of row A. Serial dilutions of Row A compound were performed 2×15 μls in rows A through O (15-point).
A PP, 384-well plate containing the appropriate cell culture medium was prepared for each assay plate with 100 μls per well. For the doxycycline-induced 41o-cells, doxycycline for both the assay plate and the medium dilution plate was added at 0.0005 mg/ml to the medium.
Both cell lines were plated for the assay at 30 uls per 384-well at 3.4×10^e5 cells per ml (˜10K cells/well). H441 cells were plated on opaque, white, Corning plate 3704. 41o-cells were plated on collagen-coated opaque, white, Corning plate 356665. For 41o-cells, doxycycline was added to the medium.
Using FX (Beckman) protocol, 10 uls diluted compound or medium was added per well to the Assay Plate as: 2 μls DMSO Dilution plate well is diluted in 100 uls of the Medium Dilution Plate well, mixed, and 10 uls is transferred to the Assay Plate.
The final assay dilution series is 24.5, 12.3, 6.1, 3.1, 1.5, 0.8, 0.4, 0.2, 0.1, 0.05, 0.02, 0.01, 0.006, 0.003, 0.001 and 0 μM. The 41o-assay plates were incubated at 37° C. w/CO2, the H441 assay plates were incubated at 27° C. w/CO2, each overnight for two nights.
After being brought to room temperature, the assay plate liquid was removed. 30 μls of Luminata Forte (Millipore ELLUF0100) was added per well and incubated at room temperature for 10 min. The plates were then read on a Topcount, protocol LumiMatti (CPS, luminescence). The data was analyzed for % of maximum, maximum VX809 signal, and EC50 using Pearl and SPEED tools.

SMILES strings stand for the structures.

T1 sequence (P13569 with tags, fused parts or gaps DEL508-508): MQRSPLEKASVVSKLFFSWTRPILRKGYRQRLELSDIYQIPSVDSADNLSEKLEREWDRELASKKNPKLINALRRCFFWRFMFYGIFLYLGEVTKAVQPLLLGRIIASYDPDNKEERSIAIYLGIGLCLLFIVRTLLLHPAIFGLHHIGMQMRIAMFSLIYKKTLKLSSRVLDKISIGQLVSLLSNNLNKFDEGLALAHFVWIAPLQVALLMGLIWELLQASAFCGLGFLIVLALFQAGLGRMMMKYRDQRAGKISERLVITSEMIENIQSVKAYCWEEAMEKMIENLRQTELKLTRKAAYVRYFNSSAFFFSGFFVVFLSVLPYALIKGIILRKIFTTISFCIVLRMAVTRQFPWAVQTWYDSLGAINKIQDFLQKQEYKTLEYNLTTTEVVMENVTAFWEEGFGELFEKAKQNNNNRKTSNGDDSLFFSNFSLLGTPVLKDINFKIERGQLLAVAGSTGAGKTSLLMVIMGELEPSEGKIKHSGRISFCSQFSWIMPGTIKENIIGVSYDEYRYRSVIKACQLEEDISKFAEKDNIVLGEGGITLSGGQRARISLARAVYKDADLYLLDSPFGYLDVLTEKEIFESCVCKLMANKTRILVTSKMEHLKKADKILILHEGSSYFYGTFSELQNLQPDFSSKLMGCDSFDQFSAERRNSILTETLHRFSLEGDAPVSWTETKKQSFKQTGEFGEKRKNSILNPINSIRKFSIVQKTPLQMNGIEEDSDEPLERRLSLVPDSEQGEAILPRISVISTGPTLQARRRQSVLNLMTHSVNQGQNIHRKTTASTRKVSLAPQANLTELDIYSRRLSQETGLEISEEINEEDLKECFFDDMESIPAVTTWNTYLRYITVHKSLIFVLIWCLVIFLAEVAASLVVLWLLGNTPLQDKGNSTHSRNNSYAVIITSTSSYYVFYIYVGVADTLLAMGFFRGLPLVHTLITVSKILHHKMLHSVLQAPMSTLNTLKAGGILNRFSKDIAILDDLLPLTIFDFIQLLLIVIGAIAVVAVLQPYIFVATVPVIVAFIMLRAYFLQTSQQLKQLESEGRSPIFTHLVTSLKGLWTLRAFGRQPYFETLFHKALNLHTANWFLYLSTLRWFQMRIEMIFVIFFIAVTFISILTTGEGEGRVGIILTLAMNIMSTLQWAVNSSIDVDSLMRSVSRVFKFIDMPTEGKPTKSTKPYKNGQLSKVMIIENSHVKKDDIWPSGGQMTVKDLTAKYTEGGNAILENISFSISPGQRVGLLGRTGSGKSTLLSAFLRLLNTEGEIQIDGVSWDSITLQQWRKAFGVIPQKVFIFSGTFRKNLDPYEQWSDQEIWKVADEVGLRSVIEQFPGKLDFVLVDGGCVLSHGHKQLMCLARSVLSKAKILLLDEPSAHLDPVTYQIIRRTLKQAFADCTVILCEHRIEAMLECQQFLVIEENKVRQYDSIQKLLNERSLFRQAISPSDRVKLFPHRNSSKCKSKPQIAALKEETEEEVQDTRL

As to `O=C(N[C@H](C(=O)O)C12CC3CC(CC(C3)C1)C2)c1ccc2ccccc2c1OCc1ccc(C(F)(F)F)cc1` [compound 96, (2S)-2-(1-adamantyl)-2-[[1-[[4-(trifluoromethyl)phenyl]methoxy]naphthalene-2-carbonyl]amino]acetic acid], the EC50 (as a rule, the concentration giving half of the maximal effect) is 0.398 µM and the Emax (commonly the greatest response seen or fitted, relative to the assay's reference) turned out to be 180%.
On to `O=C(N[C@H](C(=O)O)C12CC3CC(CC(C3)C1)C2)c1ccc2cc(F)ccc2c1OCc1ccc(Cl)c(Cl)c1` [compound 55], for which the EC50 is 0.196 µM and the Emax is 150%.
Taken in the same sequence, the figures for `COc1c(F)c(COc2c(C(=O)N[C@H](C(=O)O)C34CC5CC(CC(C5)C3)C4)ccc3ccccc23)c(F)c(F)c1C(F)(F)F` [compound 86] were 0.526 µM and 24%.
On the same counts, the results for `O=C(N[C@H](C(=O)O)C12CC3CC(CC(O)(C3)C1)C2)c1ccc2cccnc2c1OCC1CCC(F)(F)CC1` [compound 60] are 11.6 µM and 73.1%.
Consider `O=C(N[C@H](C(=O)O)C12CC3CC(CC(C3)C1)C2)c1ccc2sccc2c1OCc1ccc(OC(F)F)cc1` [compound 107, (2S)-2-(1-adamantyl)-2-[[4-[[4-(difluoromethoxy)phenyl]methoxy]benzothiophene-5-carbonyl]amino]acetic acid], for which the Emax was -7.7%.
Take `O=C(N[C@H](C(=O)O)C12CC3CC(CC(C3)C1)C2)c1sc2ccccc2c1OCc1ccc(Cl)c(Cl)c1` [compound 24]: the EC50 was determined as 0.726 µM and the Emax was 159%.
Taken in the same sequence, the figures for `O=C(N[C@H](C(=O)O)C12CC3CC(CC(C3)C1)C2)c1ccn2cccc2c1OCc1ccc(C(F)(F)F)cc1` [compound 117, (2S)-2-(1-adamantyl)-2-[[8-[[4-(trifluoromethyl)phenyl]methoxy]indolizine-7-carbonyl]amino]acetic acid] were 0.172 µM and 160%.
On the same counts, the results for `O=C(N[C@H](C(=O)O)C12CC3CC(CC(C3)C1)C2)c1sc2ccccc2c1OCc1ccc(OC(F)(F)F)cc1` [compound 93] are 0.908 µM and 108%.
In the case of `O=C(N[C@H](C(=O)O)C12CC3CC(CC(C3)C1)C2)c1ccc2cccnc2c1OCC1CCCCC1` [compound 5], a half-maximal effect (EC50) was put at 1.16 µM and the Emax came out at 249%.
Regarding `O=C(O)[C@@H](N1CN(Cc2ccc(C(F)(F)F)cc2)c2ccccc2C1=O)C12CC3CC(CC(C3)C1)C2` [compound 135, (2S)-2-(1-adamantyl)-2-[4-oxo-1-[[4-(trifluoromethyl)phenyl]methyl]-2H-quinazolin-3-yl]acetic acid], the Emax was -5.4%.
With `O=C(N[C@H](C(=O)O)C12CC3CC(CC(Br)(C3)C1)C2)c1ccc2cccnc2c1OCc1ccc(C(F)(F)F)cc1` [compound 67], a half-maximal response (EC50) required 0.879 µM and the Emax came to 134%.
For `CC12CC3(C)CC(C)(C1)CC([C@H](NC(=O)c1ccc4ccccc4c1OCc1ccc(C(F)(F)F)cc1)C(=O)O)(C2)C3` [compound 59], the 50% effective concentration (EC50) stood at 0.291 µM and the Emax was 257%.
As for `O=C(O)[C@@H](N1CN(Cc2ccc(SC(F)(F)F)cc2)c2c(ccc3ccccc23)C1=O)C12CC3CC(CC(O)(C3)C1)C2` [compound 121, (2S)-2-(3-hydroxy-1-adamantyl)-2-[4-oxo-1-[[4-(trifluoromethylsulfanyl)phenyl]methyl]-2H-benzo[h]quinazolin-3-yl]acetic acid], the EC50 amounted to 1.63 µM and the Emax came to 56.5%.
In the case of `O=C(N[C@H](C(=O)O)C12CC3CC(CC(C3)C1)C2)c1ccc2sccc2c1OCc1ccc(S(F)(F)(F)(F)F)cc1` [compound 114], the EC50 worked out at 0.465 µM and the Emax came to 119%.
On the same counts, the results for `O=C(N[C@H](C(=O)O)C12CC3CC(CC(C3)C1)C2)c1ccc2sccc2c1OCc1nc2ccccc2s1` [compound 113, (2S)-2-(1-adamantyl)-2-[[4-(1,3-benzothiazol-2-ylmethoxy)benzothiophene-5-carbonyl]amino]acetic acid] are 0.596 µM and 184%.
As for `O=C(N[C@H](C(=O)O)C12CC3CC(CC(C3)C1)C2)c1ccc2ccccc2c1OCc1ccc(Cl)c(Cl)c1` [compound 89], the EC50 was 0.35 µM and the Emax turned out to be 204%.
In the case of `O=C(N[C@H](C(=O)O)C12CC3CC(CC(O)(C3)C1)C2)c1ccc2ccccc2c1NCc1ccc(SC(F)(F)F)cc1` [compound 131, (2S)-2-(3-hydroxy-1-adamantyl)-2-[[1-[[4-(trifluoromethylsulfanyl)phenyl]methylamino]naphthalene-2-carbonyl]amino]acetic acid], the EC50 was 1.4 µM and the Emax amounted to 21.7%.
As to `CC(C)OC(=O)[C@@H](NC(=O)c1ccc2ccccc2c1OCc1ccc(C(F)(F)F)cc1)C12CC3CC(CC(C3)C1)C2` [compound 74], the Emax amounted to 4%.
Turning to `O=C(O)[C@@H](N1CN(Cc2ccc(OC(F)(F)F)cc2)c2c(ccc3ccccc23)C1=O)C12CC3CC(CC(O)(C3)C1)C2` [compound 119], the EC50 was found to be 0.614 µM and the Emax is 71%.
For the compound `O=C(N[C@H](C(=O)O)C12CC3CC(CC(C3)C1)C2)c1ccc2sccc2c1OCc1nc(C(F)(F)F)cs1` [compound 115, (2S)-2-(1-adamantyl)-2-[[4-[[4-(trifluoromethyl)thiazol-2-yl]methoxy]benzothiophene-5-carbonyl]amino]acetic acid], a half-maximal response (EC50) required 2.84 µM and the Emax was found to be 106%.
As to `O=C(N[C@H](C(=O)O)C12CC3CC(CC(C3)C1)C2)c1ccc2cccnc2c1OCc1ccc(C(F)(F)F)cc1` [compound 41], the midpoint of the response, the EC50, lay at 0.468 µM and the Emax came out at 173%.
Take `CC12CC3(C)CC(C)(C1)CC(C(NC(=O)c1ccc4ccccc4c1OCC1CCCCC1)C(=O)O)(C2)C3` (centres unmarked) [compound 75]: a half-maximal effect (EC50) was put at 0.599 µM and the Emax came out at 271%.
As to `O=C(N[C@H](C(=O)O)C12CC3CC(CC(C3)C1)C2)c1ccc2cc(F)ccc2c1OCc1ccc(S(F)(F)(F)(F)F)cc1` [compound 56], the midpoint of the response, the EC50, lay at 0.236 µM and the Emax was determined as 89.7%.
In the case of `O=C(N[C@H](C(=O)O)C12CC3CC(CC(C3)C1)C2)c1ccc2ccccc2c1OCc1ccc(S(F)(F)(F)(F)F)cc1` [compound 47], the midpoint of the response, the EC50, lay at 0.449 µM and the Emax is 148%.
As for `O=C(N[C@H](C(=O)O)C12CC3CC(CC(OCC(F)(F)F)(C3)C1)C2)c1ccc2cc(F)ccc2c1OCc1ccc(C(F)(F)F)cc1` [compound 26], a half-maximal effect (EC50) was put at 0.183 µM and the Emax stood at 113%.
On the same counts, the results for `O=C(N[C@H](C(=O)O)C12CC3CC(CC(C3)C1)C2)c1ccc2sccc2c1OCC1CCCCC1` [compound 104, (2S)-2-(1-adamantyl)-2-[[4-(cyclohexylmethoxy)benzothiophene-5-carbonyl]amino]acetic acid] are 1.23 µM and 228%.
On the same counts, the results for `O=C(N[C@H](C(=O)O)C12CC3CC(Cl)(CC(Cl)(C3)C1)C2)c1ccc2ccccc2c1NCc1ccc(SC(F)(F)F)cc1` [compound 130, (2S)-2-(3,5-dichloro-1-adamantyl)-2-[[1-[[4-(trifluoromethylsulfanyl)phenyl]methylamino]naphthalene-2-carbonyl]amino]acetic acid] are 0.477 µM and 60.6%.
With `O=C(N[C@H](C(=O)O)C12CC3CC(CC(C3)C1)C2)c1ccc2ccccc2c1OC[C@H]1CC[C@H](C(F)(F)F)CC1` [compound 48], the EC50 is 0.729 µM and the Emax is 124%.
For the compound `O=C(N[C@H](C(=O)O)C12CC3CC(CC(C3)C1)C2)c1ccc2cc(F)ccc2c1OCC1CCC(F)(F)CC1` [compound 16], it took 1.75 µM to reach a half-maximal effect (EC50) and the Emax worked out at 90%.
As for `CCOC(=O)[C@H](C)OC12CC3CC(C1)CC([C@H](NC(=O)c1ccc4cc(F)ccc4c1OCc1ccc(C(F)(F)F)cc1)C(=O)O)(C3)C2` [compound 87], the response was half-maximal at 0.287 µM (EC50) and the Emax was determined as 96.2%.
Take `O=C(N[C@H](C(=O)O)C12CC3CC(CC(C3)C1)C2)c1sc2ccccc2c1OCC1CCCCC1` [compound 94]: the EC50 was found to be 0.915 µM and the Emax is 257%.
